This is an account of results in patent US10780090B2, “Heteroaryl compounds useful as inhibitors of SUMO activating enzyme” (Millennium Pharmaceuticals, Inc., priority 2014, dated 2020).

The test addresses recombinant human SAE enzyme (Homo sapiens (Human), UniProt Q9UBT2). Kind of test: SAE HTRF enzyme assay. It is filed as biochemical. Put shortly: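 HTRF read-out using Eu-cryptate anti-Flag and allophycocyanin anti-GST antibodies, added with EDTA stop buffer and read after 2 h at 24 °C. The preceding reaction ran 105 min at 24 °C: 0.11 nM recombinant SAE, 0.5 μM ATP, Sumo-Flag, Ubc9-GST, pH 7.5. Values given as single-concentration inhibition or IC50.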
Background: In TR-FRET formats the signal depends on donor and acceptor labels being close together.

[1] abbreviates: SAE inhibition at compound concentration 0.111 μM.
[2] abbreviates: SAE inhibition, class symbols, legend in nM.

Sequence of recombinant human SAE enzyme (Q9UBT2 whole entry): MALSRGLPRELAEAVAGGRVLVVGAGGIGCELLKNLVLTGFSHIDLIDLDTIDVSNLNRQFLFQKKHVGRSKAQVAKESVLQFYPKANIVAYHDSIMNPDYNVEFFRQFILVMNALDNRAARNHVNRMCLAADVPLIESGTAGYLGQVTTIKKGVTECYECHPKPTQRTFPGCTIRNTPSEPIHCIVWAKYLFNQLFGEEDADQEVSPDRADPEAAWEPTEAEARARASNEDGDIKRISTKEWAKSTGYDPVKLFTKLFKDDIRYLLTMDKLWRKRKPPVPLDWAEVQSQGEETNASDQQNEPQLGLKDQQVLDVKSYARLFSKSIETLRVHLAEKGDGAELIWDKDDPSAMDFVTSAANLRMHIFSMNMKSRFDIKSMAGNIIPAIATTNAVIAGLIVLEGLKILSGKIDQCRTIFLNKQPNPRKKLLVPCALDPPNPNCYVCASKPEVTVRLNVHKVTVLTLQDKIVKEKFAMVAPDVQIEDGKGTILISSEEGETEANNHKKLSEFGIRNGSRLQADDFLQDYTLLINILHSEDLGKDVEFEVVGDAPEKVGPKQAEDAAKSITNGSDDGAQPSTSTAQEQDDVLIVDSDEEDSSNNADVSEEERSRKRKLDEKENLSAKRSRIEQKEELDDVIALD
Sequence of recombinant human SAE enzyme (Q9UBE0 whole entry partner): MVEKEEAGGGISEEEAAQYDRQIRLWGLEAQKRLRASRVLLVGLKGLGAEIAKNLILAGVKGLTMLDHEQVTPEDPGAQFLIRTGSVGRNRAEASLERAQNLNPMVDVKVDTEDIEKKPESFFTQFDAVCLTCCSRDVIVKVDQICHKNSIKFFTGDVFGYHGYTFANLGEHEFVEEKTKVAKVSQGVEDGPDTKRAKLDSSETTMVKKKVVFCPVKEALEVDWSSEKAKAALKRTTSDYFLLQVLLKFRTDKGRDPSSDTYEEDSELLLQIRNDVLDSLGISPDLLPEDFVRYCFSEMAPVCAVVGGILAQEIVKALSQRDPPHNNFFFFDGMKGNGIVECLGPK

As to `NS(=O)(=O)OC[C@H]1C[C@@H](Nc2ncncc2C(=O)c2cc([C@H]3OCCc4cccc(Cl)c43)cs2)C[C@@H]1O` [I-365, [(1R,2S,4R)-4-[[5-[4-[(1S)-chloroisochroman-1-yl]thiophene-2-carbonyl]pyrimidin-4-yl]amino]-2-hydroxy-cyclopentyl]methyl sulfamate and [(1R,2S,4R)-4-[[5-[4-[(1R)-8-chloroisochroman-1-yl]thiophene-2-carbonyl]pyrimidin-4-yl]amino]-2-hydroxy-cyclopentyl]methyl sulfamate], the “Percent Inhibition” value under setting [1] came to 62%. Under setting [2], the IC50 fell in the range of 10 to 100 nM.
Regarding “[(1R,2S,4R)-2-hydroxy-4-({5-[(5-methyl-4-{(R)-[3-(trifluoromethyl)phenyl]sulfinyl}-2-thienyl)carbonyl]pyrimidin-4-yl}amino)cyclopentyl]methyl sulfamate and [(1R,2S,4R)-2-hydroxy-4-({5-[(5-methyl-4-{(S)-[3-(trifluoromethyl)phenyl]sulfinyl}-2-thienyl)carbonyl]pyrimidin-4-yl}amino)cyclopentyl]methyl sulfamate [I-69]”, where the note is “Concentration 0.111 μM”, the “Percent Inhibition” value is 100. Where the note is “class symbols A/B/C”, the IC50 was less than 10 nM.
“[(1R,2S,4R)-2-hydroxy-4-{[5-({4-[(1R)-2-methyl-2,3-dihydro-1H-isoindol-1-yl]-2-thienyl}carbonyl)pyrimidin-4-yl]amino}cyclopentyl]methyl sulfamate and [(1R,2S,4R)-2-hydroxy-4-{[5-({4-[(1S)-2-methyl-2,3-dihydro-1H-isoindol-1-yl]-2-thienyl}carbonyl)pyrimidin-4-yl]amino}cyclopentyl]methyl sulfamate [I-308]”: under setting [1], the “Percent Inhibition” value turned out to be 98%. Under setting [2], the IC50 is less than 10 nM.
As to “[(1R,2S,4R)-4-{[5-({4-[(1R)-7-bromo-1,2,3,4-tetrahydroisoquinolin-1-yl]-5-chloro-2-thienyl}carbonyl)pyrimidin-4-yl]amino}-2-hydroxycyclopentyl]methyl sulfamate and [(1R,2S,4R)-4-{[5-({4-[(1S)-7-bromo-1,2,3,4-tetrahydroisoquinolin-1-yl]-5-chloro-2-thienyl}carbonyl)pyrimidin-4-yl]amino}-2-hydroxycyclopentyl]methyl sulfamate [I-251]”, the “Percent Inhibition” value (Concentration 0.111 μM) came out at 100. Moreover, the half-inhibitory concentration (IC50) (class symbols A/B/C) was less than 10 nM.
Regarding “[(1R,2S,4R)-4-{[5-({5-chloro-4-[(1R)-1-hydroxy-2-phenylethyl]-2-thienyl}carbonyl)pyrimidin-4-yl]amino}-2-hydroxycyclopentyl]methyl sulfamate and [(1R,2S,4R)-4-{[5-({5-chloro-4-[(1S)-1-hydroxy-2-phenylethyl]-2-thienyl}carbonyl)pyrimidin-4-yl]amino}-2-hydroxycyclopentyl]methyl sulfamate [I-136]”, the “Percent Inhibition” value (Concentration 0.111 μM) came to 96. For the same compound, the IC50 (class symbols A/B/C) is less than 10 nM.
Taken in the same sequence, the figures for “[(1R,2S,4R)-4-{[5-({5-chloro-4-[(1S)-1,2,3,4-tetrahydroisoquinolin-1-yl]-2-thienyl}carbonyl)pyrimidin-4-yl]amino}-2-hydroxycyclopentyl]methyl sulfamate and [(1R,2S,4R)-4-{[5-({5-chloro-4-[(1R)-1,2,3,4-tetrahydroisoquinolin-1-yl]-2-thienyl}carbonyl)pyrimidin-4-yl]amino}-2-hydroxycyclopentyl]methyl sulfamate [I-279]” were 99 and less than 10 nM.
As for “{(1R,2S,4R)-4-[(5-{5-chloro-4-[(1R)-7-chloro-1,2,3,4-tetrahydroisoquinolin-1-yl]-2- [I-299]”, the “Percent Inhibition” value under setting [1] is 98%. In addition, under setting [2], the IC50 is less than 10 nM.

Broadly, the IC50 is the concentration that gives 50% inhibition.
